In patent US6117859A, “Method of relieving chronic inflammation by using 5-alkylsulfonylsalicylanilides” (The Research Foundation of State University of New York, priority 1999, dated 2000):
“Also recorded” adds a separate entry of the source.

How the values were obtained:
[1] = Solubility of representative compounds in various solvent systems; type: physicochemical
Description: The solubility of representative compounds of this invention in various solvent systems was determined. The solvents included ethanol, propylene glycol, SLS, Tween 80™ and combinations thereof.

[2] = test system: TPA induced mouse ear edema; assay: Acute TPA mouse ear inflammation assay, edema (ear weight); type: in vivo
Text: (§1) The anti-inflammatory effect of selected compounds of this invention were compared to those of Triclosan™ and hydrocortisone in a modified […] (TPA) mouse ear inflammation assay. TPA was used as an inflammogen rather than croton oil because TPA gives a well characterized inflammatory response at very low concentrations. […] This model can therefore be used to study the pharmacokinetics, clinical efficacy and adverse side effects of anti-inflammatory agents. To quantitate inflammation, ear punches from treated animals were used to measure increased ear mass (edema) and myeloperoxidase (MPO) activity. For the inhibition studies, ear biopsies were weighed six hours after treatment with TPA and the simultaneous application of the compound of the present invention. All the compounds were diluted in acetone. Following this, the biopsies were frozen and subsequently used to measure inhibition of MPO activity, an estimate of polymorphonuclear (PMN) […] activity in the affected area. Percent inhibition of edema was calculated as [c-t]/c x 100, where c and t are increases in ear weight in control and treated mice, respectively.
Initially a dose-response curve for TPA-induced mouse ear edema was generated in order to determine the concentration of TPA to be employed in the inhibition studies. TPA produced a theoretical dose-response curve for edema with an ED50 of 80 ng/ear and an ED90 of 200 ng/ear in two separate experiments. ED50 is the dose at which 50% of the maximum effect was observed while ED90 is the dose at which 90% of the maximum effect was observed. […] The ED50 values for the compounds tested are as follows: […]

myeloperoxidase (MPO) = assay: Myeloperoxidase (MPO) activity in ear biopsies, acute TPA mouse ear assay; type: in vivo
Text: as §1
As a confirmation of the anti-inflammatory activity and in an attempt to further define the mechanism of inhibition produced by the alkylsulfonylsalicylanilides, MPO activity was measured in representative ear biopsies. The enzyme was extracted from the tissue by using a combination of homogenization in the presence of a detergent, freezing and thawing, and sonication. The change in absorbance was measured with time using o-dianisidine and H2 O2 as the substrate in an automated plate reader. As shown below, TPA-induced increase in MPO was inhibited in TMF-12 treated ears at a dose approximately 10-fold less than that which inhibited edema.

[3] = test system: ear weight gain produced by multiple doses of TPA in mice; assay: Chronic (multiple dose) TPA mouse ear inflammation assay, ear weight gain; type: in vivo, mouse (female CD-1)
Description: The acute skin inflammation model described in Example 1, tests the ability of a compound to prevent inflammation and thus must be applied prophylactically. Most clinical situations, however, are present as chronic inflammatory conditions. […] The effects of the compounds of the present invention and Salifluor on chronically inflamed skin was measured in the mouse ear model that utilizes multiple TPA doses over a 10-day period to produce the inflammatory response.
The assay used female CD-1 mice (7-9 weeks of age). Following a 2-week quarantine, mice were randomly assigned to test groups (5 mice/groups). TPA (10 uL of 0.01 TPA in acetone) was administered to both the inner and outer surface of each ear (2μg/ear) on day 0,2,4,7, and 9 on protocol. On Day 7,8 and 9, two applications of test article were applied to each ear 2 and 4 hours after dosing with TPA. The test articles were administered in 10 uL aliquots to both the inner and outer surface of each ear (20 μl total/dose). […] Hydrocortisone-17-valerate (HCV, 20μg/ear) was employed as a positive control. Mice were sacrificed at Day 10 on protocol and uniform punch biopsies (approximately 8 mm dia.) were taken from each ear. While on protocol, dermal irritation was scored semiquantitatively at Day 1,3,5,8, and 10.
Inhibition of TPA stimulated increased ear weight was used as an initial measure of efficacy for all of the agents tested. One biopsy from each mouse was also quick frozen and stored at -70° C. for later assay of myleoperoxidase, an enzyme associated with infiltrating PMN, or other measure of efficacy. The remaining biopsy from each mouse treated with Trifluorosal or HCV was fixed in formalin and processed for histopathologic evaluation, including measurement of cellular infiltration (PMNs, endothelial cells, macrophages) and epidermal thickness at 20 random sites along the length of the specimen.
Initially, a dose-response curve for multiple doses of TPA to produce mouse ear weight gain was generated in order to determine the concentration of TPA to be employed in the inhibition studies. […] Another major difference between the multiple TPA dose (or chronic assay for inflammation) and the single TPA dose (or acute assay for inflammation) in the mouse ear is sensitivity to Non-steroidal antiinflammatory drugs (NSAIDs) and antihistamines.

[4] = Single dose oral tolerance in rats; type: in vivo, rat (male weaning Sprague-Dawley); details: single dose 2.5 or 0.75 g/kg in 5% CMC, 7 days
Description: To test for tolerance of the administered compounds, male weaning Sprague-Dawley rats were fed in a single dose of 2.5 or 0.75 g/kg of TMF-12, TMF-10, TMC-10 or TPC-10 in 5% carboxymethyl cellulose (CMC) or CMC alone. […] At completion of the 7 day observation period, necropsies were performed on all animals.

Lipophilicity = type: physicochemical; details: compared with AMCF3-8
Text: By the term "partition coefficient" as used herein for the purposes of specification and claims is meant the log10 P where P is the ratio of the molar concentrations of the compositions of the composition in octanol-water system. Partition coefficient is a measure of the lipophilic character of the compound. A partition coefficient of 4 therefore means that the ratio of the concentration of the composition in octanol to the concentration in water is 10^4 or 10,000 to 1.

Q: What does the source list for `CCCCCCCCCCCCS(=O)(=O)c1ccc(O)c(C(=O)Nc2cccc(C(F)(F)F)c2)c1` [TMF-12]?
A: solubility ([1]; +0.5% tween 80): 1340 µg/mL; solubility ([1]; +1% sls): 1660 µg/mL; solubility ([1]; +1.5% tween 80): 4290 µg/mL; solubility ([1]; +2% SLS + 0.5% Tween 80): 3540 µg/mL; solubility ([1]; +2% SLS + 1.0% Tween 80): 4010 µg/mL; solubility ([1]; +2% SLS + 2.0% Tween 80): 5860 µg/mL; solubility ([1]; +2% sls): 2930 µg/mL; solubility ([1]; +3.0% tween 80): 8340 µg/mL; solubility ([1]; +4% sls): 5740 µg/mL; solubility ([1]; aqueous buffer, pH 10 Na-buffer @ 22° C.): < 0.1 µg/mL; Solubility in anionic and nonionic surfactant solutions relative to AMCF3-8 ([1]; compared with AMCF3-8): greater solubility than AMCF3-8; solubility ([1]; organic solvent or mixture, Ethanol, 22° C.): 13600 µg/mL; solubility ([1]; organic solvent or mixture, Propylene Glycol @ 20° C.): 6660 µg/mL; solubility ([1]; ph 10 na-buffer +0.5% sls, pH 10 Na-buffer @ 22° C. +0.5% SLS): 1280 µg/mL; ID50 edema ([2]; acute assay): 18 μg/ear; Inhibition of TPA induced mouse ear edema (in words) ([2]; acute assay): inhibited TPA induced mouse ear edema in a dose-dependent fashion; Relative anti-inflammatory potency (in words) ([2]; acute assay): most potent of all; also recorded: more potent than AMCF3-8; Relative anti-inflammatory potency (in words) ([2]; acute assay, listed as Trifluorosal): the most potent 5-(n-alkylsulfonyl)salicylanilide in this assay; Potency relative to Salifluor ([2]; acute edema assay): ten; MPO Activity (myeloperoxidase (MPO); TMF-12 0.8 mg/20 ml): 590.2 D OD/min; MPO Activity (myeloperoxidase (MPO); TMF-12 1.24 mg/20 ml): 327.3 D OD/min; MPO Activity (myeloperoxidase (MPO); TMF-12 8 mg/20 ml): 56.5 D OD/min; MPO Activity (myeloperoxidase (MPO); TMF-12 12.4 mg/20 ml): 54.8 D OD/min; MPO Activity (myeloperoxidase (MPO); TMF-12 80 mg/20 ml): 27.6 D OD/min; MPO Activity (myeloperoxidase (MPO); TMF-12 124 mg/20 ml): 21 D OD/min; Dose inhibiting MPO increase, fold less than dose inhibiting edema (myeloperoxidase (MPO); compared with edema inhibition): approximately 10 fold; Inhibition of ear weight gain ([3]; 500μg/ear, first experiment): 28%; Inhibition of ear weight gain ([3]; 1.25 mg/ear): 37.5%; Inhibition of ear weight gain ([3]; 2.5 mg/ear): 27.3%; Inhibition of ear weight gain ([3]; 5.0 mg/ear (printed 'mc/ear' for Trifluorosal)): 34.4%; Activity in chronic assay (in words) ([3]; 1.25-5 mg/ear, remaining experiments): demonstrated consistent activity; % Inhibition of Ear Weight Gain, Actual ([3]; multiple doses of TPA): 37.3%; % Inhibition of Ear Weight Gain, Relative to Hydrocortisone (HCV) = 100% ([3]; multiple doses of TPA, head prints 1.25 eg/ear): 61.8%; Illness or deaths [4]: No illness or deaths occurred; Lipophilicity relative to AMCF3-8 (Lipophilicity): more lipophilic than AMCF3-8
